# How the values were obtained:
# [1] = tested on: PC3M-GFP-PTB cells; assay: Cytotoxicity measured by cellular ATP (CELLTITER GLO); assay type: cell-based, human
# Description: FIG. 1 is a graph showing the concentration-response curve against PNC prevalence in PC3M (a metastatic prostate cancer cell line)-GFP (green fluorescent protein)-PTB (polypyrimidine tract-binding protein) cells (squares, PC3M, has a PNC prevalence of 75-85% in the absence of treatment) and cytotoxicity as measured by cellular ATP (CELLTITER GLO™) (circles). Representative PTB-GFP images for cells at the indicated concentrations (arrowheads indicate PNCs) (scale bar=5 μm) are shown in the three panels above the graph. The relative signal (%) is along the y-axis and Metarrestin [log M] is along the x-axis.
# [2] = tested on: PC3M xenograft mice; assay: PC3M xenograft prostate cancer model; assay type: in vivo
# Method: Metarrestin was tested in PC3M xenograft mice to determine whether metarrestin's anti-metastasis activity (observed in the NSG PANC1 mice and in vitro pan-cancer PNC suppression) translates into anti-metastasis activity in additional cancer models. Two weeks after subcutaneous implantation of PC3M cells, mice were started on 5 mg/kg or 25 mg/kg metarrestin or vehicle by daily IP injection for 4 additional weeks. Tumor progression was tracked by both in vivo imaging systems (“IVIS”) spectroscopy and tumor volume. Metastasis to the lungs was evaluated ex vivo through IVIS spectroscopy and by histopathology at the experimental endpoint. […] To evaluate the effect of metarrestin on a malignant xenograft considered closest to in vivo conditions, a patient-derived breast cancer xenotransplantation model (PDX) was used. Metastatic breast cancer cells harvested from the pleural fluid of a stage IV ductal breast cancer patient were inoculated into mice, and third generation mouse-passaged tumors were transplanted into the mammary fat pad of NOD.Cg-Prkdc^scid Il2rg^tm1Sug/JicTac mice. Treatment with metarrestin started after the tumors reached 150-200 mm^3. Metarrestin (25 mg/kg) or vehicle was administered daily by IP injection for 4 weeks with a 5-day on and 2-day off schedule. Tumor size and total body weight were measured twice a week, and tumor weight was measured at experimental end-point.
# Prostate cancer model: Mice were implanted in the flank with 3×10^6 human PC-3M-luc-C6 […] tumor cells (Caliper Life Sciences) and split into 4 groups of 10 mice. Dosing with 5 or 25 mg/kg drug or vehicle alone (negative control) was initiated after 2 weeks and continued until the experimental endpoint, 6 weeks after implantation. Primary tumor size (measured with calipers), live tumor cell content (measured by biophotonic imaging), and total body weight were determined each week. At the endpoint, animals were euthanized, metastatic organs removed, and metastases quantitated by biophotonic imaging of the organs.
# [3] = tested on: NSG PANC1 mice; assay: Orthotopic pancreatic cancer metastasis model, daily IP treatment; assay type: in vivo
# Method: Because pancreatic cancer patients suffer particular high mortality from metastasis, the in vivo efficacy of metarrestin against metastasis in an orthotopic pancreatic cancer metastasis model was evaluated. The 3D PANC1 cell spheres model, deployed in NOD/interleukin 2 receptor common gamma chain (Il2rγ)^null (NSG) PANC-1 mice (see Suemizu et al., “Identification of a key molecular regulator of liver metastasis in human pancreatic carcinoma using a novel quantitative model of metastasis in NOD/SCID/gammacnull (NOG) mice.” Int. J. Oncol., (31): 741-51 (2007), incorporated herein in its entirety), recapitulates human cancer progression and metastatic phenotype of the disease without the limitations of early death due to complications of local invasion, such as gastric outlet obstruction or impingement of the common bile duct. Sixty thousand 3D luciferase-expressing PANC1-luc cell spheres were injected orthotopically into the pancreas of NSG mice. […] By 8 weeks, macrometastasis on the liver surface were visible.
# Four weeks after inoculation, mice were treated once daily with metarrestin (5 mg/kg or 25 mg/kg) or vehicle via IP injections, continuing for six weeks. […] The treatment was well-tolerated, and animals maintained their body weight (FIG. 11).
# To determine whether PNCs in treated animals were impacted by metarrestin, PNC prevalence in primary tumors and metastatic lesions from control and metarrestin-treated animals (25 mg/kg) were examined 12 weeks after tumor inoculation. […] PNC prevalence in non-treated animals was higher in these groups of tumors and metastatic lesions than in those harvested at an earlier time (FIG. 6) or in cultured PANC1 cells (FIG. 2), consistent with previous findings that late-stage cancers have higher PNC prevalence.
# Pancreatic cancer model: 60,000 luciferase-tagged PANC1 spheres were injected into the pancreas of Nod/IL2gamma (null) mice (obtained from NCI Mouse Repository, Frederick, Md.; on ACUC-approved animal protocol SB-211-2). At 4 weeks after inoculation, mice were treated once daily with metarrestin (5 mg/kg or 25 mg/kg) or vehicle via IP injections, which extended out for 6 more weeks. Mice were injected with luciferin 5 minutes before being sacrificed by CO2 euthanasia. Organs were then individually dissected, subjected to quantitative xenogene imaging, and fixed with 4% non-buffered formaldehyde. Impact of metastatic burden was calculated and graphed as liver and lung/primary tumor ratios based on a five-minute photon count for the liver normalized to liver weight (g), which was then compared to the average photon count per weight (g) of the primary pancreatic tumor of the same animal. This calculation corrects for variations in luciferin injection, mouse heart rate, and perfusion. For overexpression of eEF1A2, 6*10^4 PANC1 3D spheres transduced with eEF1A2 (eEF1A2 OE) were injected into the tail of the pancreas of NSG mice. Mice of both groups were harvested at 6 weeks after implantation and subjected to necropsy. Liver metastasis/mm^2 was calculated as the sum of the […] of the individual metastases. Tumor volume (mm^3) was calculated as (L×W2), where L=length (mm) and W=width (mm). Animal survival was measured from the first day of treatment until death. […]
# [4] = 5 or 25 mg/kg IP once daily for six weeks
smiles,measurement,setting,value
N=c1c2c(-c3ccccc3)c(-c3ccccc3)n(Cc3ccccc3)c2ncn1[C@H]1CC[C@H](O)CC1 [metarrestin],Acute cytotoxicity (cellular ATP),[1],without acute cytotoxicity
same,Growth of primary tumor xenografts,[2]; 25 mg/kg daily IP for 4 weeks,modestly reduced growth
same,Lung metastasis,"[2]; 25 mg/kg daily IP for 4 weeks, P<0.05 vs vehicle",decreased development of lung metastasis
same,Body weight and behavior,[2]; daily IP for 4 weeks,not significantly different
same,Metastatic burden in liver,"[3]; 25 mg/kg IP once daily for six weeks, vs vehicle, p<0.01",decrease in metastatic burden
same,Metastatic burden in lung,"[3]; 25 mg/kg IP once daily for six weeks, vs vehicle, p<0.05",decrease in metastatic burden
same,PNC prevalence in metastatic and primary tumor tissues,"[3]; 25 mg/kg, 12 weeks after tumor inoculation, p<0.01",significant reduction of PNC prevalence
same,Primary tumor weight,[3]; [4],not significantly changed
same,"Tolerability, body weight",[3]; [4],well-tolerated
